This is an account of results in patent US20220313651A1, “INHIBITORS OF ZIKA VIRUS INFECTION” (priority 2019, published 2022).

“Also recorded” adds a separate entry of the source.

Data set [1] is described as follows: Safety of ST087010 in pregnant Ifnar1-/- mice and their pups. It is filed as in vivo. How it is done: FIG. 10A depicts weight changes of pregnant mothers at prenatal and postnatal time points and FIG. 10B depicts weight changes of pups at different postnatal time points. Alanine aminotransferase (ALT) (FIG. 10C) and creatinine (FIG. 10D) levels in sera of pregnant mice were measured by ALT assay and Creatinine assay, respectively, before and 4 h, 1, 3 and 5 days post-last injection of ST087010 or DMSO control. Haematoxylin and eosin (H&E) staining of tissues (FIG. 10E), including liver, spleen, kidney, and brain, from ST087010 or DMSO-treated mothers and their pups. Scale bar, 50 μm.
ST087010 was detected for its safety profiles in pregnant Ifnar1^−/− mice and their fetuses. Briefly, groups of 5 pregnant mice (8-12-week-old, E12-14) were i.p. injected with ST087010 (20 or 40 mg/kg of body weight), or DMSO (control), daily for 4 continual days. […] Sera collected before and 4 h, 1, 3 and 5 days after last injection were measured for ALT and creatinine levels using ALT and Creatinine Assay kits. Two mothers and their pups (at 3-week-old) were sacrificed, and their liver, spleen, kidney, and brain tissues were sectioned, and assessed for histopathological changes by H&E staining.

In data set [2] the target is T1, ZIKV EDIII protein (Zika virus, UniProt Q32ZE1, D679E/I627V/V603I/V629A).
T1 construct: human Fc (C)
T1 sequence (Q32ZE1 584-695 V603I/I627V/V629A/D679E): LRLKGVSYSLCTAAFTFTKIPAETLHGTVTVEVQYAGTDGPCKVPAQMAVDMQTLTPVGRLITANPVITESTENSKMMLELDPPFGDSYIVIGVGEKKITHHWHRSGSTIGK
Description: SPR binding to ZIKV EDIII protein. As to conditions: 1:1 binding model, read-out: KD (binding affinity) to ZIKV EDIII protein. How it is done:
Briefly, ZIKV EDIII protein or NS2B-NS3 protein were immobilized on a sensor chip (CM5) using Amine Coupling Kit. Serially diluted ST087010 was added as analytes, and HBS-EP with 10% DMSO (10 mM HEPES, 150 mM NaCl, 3 mM EDTA, 0.05% Tween-20, 10% DMSO, pH 7.4) was used as running buffer. Biacore BK evaluation software (version 1.1) was applied to analyze the data, and the curve was fitted with a 1:1 binding model.

Data set [3] deals with ZIKV human strain R103451. The experiment in a line: Protection of Ifnar1-/- mice from lethal ZIKV challenge (survival, weight). Type of data set: in vivo. Particulars: 20 mg/kg i.p. 12 h before and 6, 24, 48 h after infection; ZIKV R103451 200 PFU/mouse; 21 days. The source says:
FIG. 8A is a schematic diagram of experimental procedures. […] The treated mice were infected with ZIKV human strain R103451 (200 plaque forming unit (PFU)/mouse), followed by evaluation of survival rate (FIG. 8B) or weight changes (FIG. 8C) for 21 days. The data are expressed as mean±s.e.m. of mice in each group (n=6). In a separate experiment, ST087010 or gossypol-treated mice were infected with ZIKV human strain PAN2016 (200, PFU/mouse). Five days post-infection (dpi), viral titers were detected in tissues by plaque assay (FIG. 8D), and ZIKV or caspase-3 signals were measured in eye (FIG. 8E) and testis ([…]) tissues by immunofluorescence staining. The data are expressed as mean±s.e.m. of mice in each group (n=5), and significant differences among different groups are shown as *, **, and ***. The detection limit is 25 PFU/g. ZIKV and caspase-3 (in FIG. 8E-F) were stained with anti-ZIKV and anti-active caspase-3 antibodies, respectively. Nuclei were stained with DAPI (40,6-diamidino-2-phenylindole). Representative images of immunofluorescence staining are shown. Magnification, 63×, and scale bar, 10 μm.
Adult male (3-4 or 7-8-week-old) and pregnant female (8-12-week-old, E12-14) Ifnar1^−/− mice were used in the study. […]
ST087010 was evaluated for protection against ZIKV infection in ZIKV-susceptible Ifnar1^−/− mice. […]

The Kd is the concentration at which binding is half-saturated. For `Cc1cc2c(C(C)C)c(O)c(O)c(/C=N/n3c(=O)[nH][nH]c3=O)c2c(O)c1-c1c(C)cc2c(C(C)C)c(O)c(O)c(/C=N/n3c(=O)[nH][nH]c3=O)c2c1O` [ST087010], the “Serum ALT and creatinine levels vs DMSO-treated mice, low dose” value in data set [1] (20 mg/kg) is “no significant difference”. The “Serum ALT and creatinine levels vs DMSO-treated mice, high dose” value in data set [1] (40 mg/kg, 1 day after injection, elevations transient) is “significantly different”. Further, the “Histopathology of liver, spleen, kidney and brain, mothers and pups” value in data set [1] (20 or 40 mg/kg, vs DMSO) was “no abnormal pathological changes; also recorded: no inflammation or cell infiltration”. For the same molecule, the “ALT and creatinine levels in sera, before vs after injection” value in data set [1] (20 or 40 mg/kg, before injection and 4 h, 3 or 5 days after last injection) was “no significant differences”. For the same molecule, in data set [2], the Kd was 4.95 µM. Further, in data set [3], the “Survival (mice protected from death)” value stood at 50% and the Weight changes result is given as “slight weight loss during 6-12 dpi”.
